This note sets out measurements from US12018011B2, “Macrocyclic compounds and compositions, and methods of preparing and using the same” (Kura Oncology, Inc., priority 2021, dated 2024).

Like-named read-outs stand apart in the source and are kept apart here.

For data set [1] the following is noted: ether bond, 13-membered ring, SOCl2, then Cs2CO3, 2 steps.
The conditions of data set [2]: ether bond, 13-membered ring, DMF.
The conditions of data set [3]: ether bond, DMF, 70.0 °C, 2 steps.
In data set [4] the target is T1, Recombinant human farnesyl transferase (FTase) (Homo sapiens, UniProt P49356).
T1 construct: purchased Crelux (Martinsried, Germany)
Put plainly: FTase fluorescence assay (farnesylation of dansyl-GCVLS peptide). Particulars: recombinant human FTase 2.5 nM, Dansyl-GCVLS 85 nM, FPP 30 nM, 30° C., 50 minutes. Format: biochemical.

“4^4-bromo-2^2-chloro-3-(1-methyl-1H-imidazol-5-yl)-6-oxa-2(4,6)-quinolina-1,4(1,3)-dibenzenacyclohexaphan-3-ol”: the ring closure, crude yield in data set [1] (DMF, 116.2 mM, 70.0 °C) is 84%. For the compound “4^4-bromo-2^2-methoxy-3-(1-methyl-1H-imidazol-5-yl)-6-oxa-2(4,6)-quinolina-1,4(1,3)-dibenzenacyclohexaphan-3-ol”, the ring closure, crude yield in data set [1] (DMF, 122.7 mM, 70.0 °C) was found to be 84.8%. With “4^4-bromo-3-(1-methyl-1H-imidazol-5-yl)-6-oxa-2(1,7)-isoquinolina-1,4(1,3)-dibenzenacyclohexaphan-3-ol”, in data set [2] (Cs2CO3, 77.0 mM, 50.0 °C), the ring closure, isolated yield stood at 60.6%. For the compound “4^4-chloro-2^2-methoxy-3-(1-methyl-1H-imidazol-5-yl)-6-oxa-2(4,6)-quinolina-1,4(1,3)-dibenzenacyclohexaphan-3-ol”, the ring closure, crude yield in data set [1] (DMF/THF 1:3, 9.96 mM, 105.0 °C) amounted to 90.7%. In turn, “4^4-chloro-2^2-methoxy-3-(4-methyl-4H-1,2,4-triazol-3-yl)-6-oxa-2(4,6)-quinolina-1,4(1,3)-dibenzenacyclohexaphan-3-ol” yielded a ring closure, isolated yield in data set [2] (K2CO3, 29.8 mM, 55.0 °C) of 69.1%. Consider “4^6-chloro-2^2-methoxy-3-(1-methyl-1H-imidazol-5-yl)-6-oxa-2(4,6)-quinolina-4(3,5)-pyridina-1(1,3)-benzenacyclohexaphan-3-ol”, for which the ring closure, crude yield in data set [1] (DMF, 64.5 mM, 70.0 °C) was 95.6%. Consider `COc1cc2c3cc(ccc3n1)C(O)(c1cncn1C)c1ccc(Br)c(c1)COc1cccc-2c1` (stereo not drawn) [Compound 52, 4^4-bromo-2^2-methoxy-3-(1-methyl-1H-imidazol-5-yl)-6-oxa-2(4,6)-quinolina-1,4(1,3)-dibenzenacyclohexaphan-3-ol], for which the ring closure, yield of all isomers in data set [3] (from COc1cc(-c2cccc(O)c2)c2cc(C(O)(c3ccc(Br)c(CO)c3)c3cncn3C)ccc2n1, Cs2CO3, 122.7 mM, 0.5 h) was 84.8%. The IC50 in data set [4] fell in the range of 10 to 100 nM. As for `COc1cc2c3cc(ccc3n1)C(O)(c1cncn1C)c1cnc(Cl)c(c1)COc1cccc-2c1` (stereo not drawn) [Compound 59, 4^6-chloro-2^2-methoxy-3-(1-methyl-1H-imidazol-5-yl)-6-oxa-2(4,6)-quinolina-4(3,5)-pyridina-1(1,3)-benzenacyclohexaphan-3-ol], the ring closure, yield of all isomers in data set [3] (from COc1cc(-c2cccc(O)c2)c2cc(C(O)(c3cnc(Cl)c(CO)c3)c3cncn3C)ccc2n1, SOCl2 then Cs2CO3, 64.5 mM, 1.0 h) came to 95.6%. The concentration for half-maximal inhibition (IC50) in data set [4] was more than 100 nM.

Regarding `Cn1cncc1C1(O)c2ccc(Br)c(c2)COc2cccc(c2)-c2cc(Cl)nc3ccc1cc23` (stereo not drawn) [Compound 71, 4^4-bromo-2^2-chloro-3-(1-methyl-1H-imidazol-5-yl)-6-oxa-2(4,6)-quinolina-1,4(1,3)-dibenzenacyclohexaphan-3-ol], the ring closure, yield of all isomers in data set [3] (from Cn1cncc1C(O)(c1ccc(Br)c(CO)c1)c1ccc2nc(Cl)cc(-c3cccc(O)c3)c2c1, Cs2CO3, 116.2 mM, 2.0 h) was found to be 84%. Further, the IC50 in data set [4] is more than 100 nM.
